Changes are numbered by the printed parent chain. Where two headings read alike, the source gives them in different places. Blank lines part the entries; values can stand above or below the compound they belong to.
Assays:
adenosine deaminase = settings: ref Ingolia et al., 1985; cited from earlier work
A1-receptor-Y^288A [1] = format: cell-based, human; settings: for receptor upregulation with only one of the inhibitors (immunoblot): sole inhibitor, 2 μM EHNA or 10 μM dipyridamole; for role of blockage of adenosine efflux in receptor upregulation: added to EHNA and 5-iodotubercidin
A1 receptor = molecular target: T1, A1 receptor (Homo sapiens, UniProt P30542); assay: Binding of the inhibitors to the A1 receptor; settings: nanomolar to micromolar range
T1 sequence (P30542 1-326): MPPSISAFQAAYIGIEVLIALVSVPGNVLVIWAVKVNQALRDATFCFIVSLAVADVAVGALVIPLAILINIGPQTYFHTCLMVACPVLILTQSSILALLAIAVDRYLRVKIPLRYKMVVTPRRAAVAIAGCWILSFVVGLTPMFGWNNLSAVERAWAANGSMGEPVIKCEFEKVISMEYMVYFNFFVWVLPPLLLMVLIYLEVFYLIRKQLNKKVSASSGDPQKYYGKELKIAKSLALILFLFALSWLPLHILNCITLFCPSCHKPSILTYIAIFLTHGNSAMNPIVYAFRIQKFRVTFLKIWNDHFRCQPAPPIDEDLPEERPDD

A1-receptor-Y^288A [2] = molecular target: T2, A1-receptor-Y^288A (Homo sapiens, UniProt P30542, Y288A); format: binding; settings: membranes of untreated cells
T2 sequence (P30542 1-326 Y288A): T1 sequence (P30542 1-326) with Y288A

wild-type A1 receptor = molecular target: T3, wild-type A1 receptor (Homo sapiens, UniProt P30542); format: binding; settings: SF-TAP-tagged receptor
T3 sequence (P30542 1-326): T1 sequence (P30542 1-326)

A1-receptor-Y^288A [3] = format: cell-based, human; settings: SF-TAP-tagged receptor, 24 hours treatment, 15 nM [3H]DPCPX
A1-receptor-Y^288A [4] = assay: Confocal microscopy of YFP-tagged A1-receptor-Y288A distribution; format: cell-based, human; settings: 1 μM DPCPX or combination of inhibitors
A1-receptor-Y^288A [5] = format: cell-based, human; settings: 24 hours; 1 μM DPCPX or inhibitor combination
human ENT1 = settings: read-out: affinity; ref Ward et al., 2000; cited from earlier work
human ENT2 = settings: read-out: affinity; ref Ward et al., 2000; cited from earlier work
[6] = 24 hours, 0.5 μM iodotubercidin

Compound: CCCCCC[C@@H]([C@@H](C)O)n1cnc2c(N)ncnc21 (racemic) [EHNA, Erythro-9-(2-hydroxy-3-nonyl)adenine]
Ki (adenosine deaminase): 33 nM | receptor upregulation with only one of the inhibitors (immunoblot) (A1-receptor-Y^288A [1]; [6]): not present | binding to the A1 receptor (A1 receptor): neither EHNA nor 5-iodotubercidin nor dipyridamole per se, nor their combination, used in the experiments bound to the A1 receptor

Compound: Nc1ncnc2c1c(I)cn2[C@@H]1O[C@H](CO)[C@@H](O)[C@H]1O [5-iodotubercidin]
receptor upregulation with only one of the inhibitors (immunoblot) (A1-receptor-Y^288A [1]; [6]): not present | binding to the A1 receptor (A1 receptor): neither EHNA nor 5-iodotubercidin nor dipyridamole per se, nor their combination, used in the experiments bound to the A1 receptor

Bmax (A1-receptor-Y^288A [2]): 486.3 ± 80.0 fmol/mg | Bmax (wild-type A1 receptor; hypoxic cells (5% O2, 24 hours)): 15.0 ± 0.8 pmol/mg | Bmax (wild-type A1 receptor; normoxic cells): 12.2 ± 0.3 pmol/mg | binding of [3H]DPCPX by the receptors accumulated after treatment (A1-receptor-Y^288A [3]): did bind the radioligand
Compound: CCCn1c(=O)c2[nH]c(C3CCCC3)nc2n(CCC)c1=O [DPCPX, 8-cyclopentyl-1,3-dipropylxanthine]
fate of receptor after cycloheximide block (mature glycosylated forms) (A1-receptor-Y^288A [1]; 4 hours preincubation, then cycloheximide 50 μg/ml for 2 or 4 hours): concomitant increase in the mature glycosylated forms of the receptor | level of receptor protein (immunoblot) (A1-receptor-Y^288A [1]; HEK293 stably expressing A1-receptor-Y288A-YFP, 24 hours, 1 μM DPCPX, 2 μM EHNA, 0.5 μM iodotubercidin, 10 μM dipyridamole): elevated levels of the receptor protein | time of maximum chaperoning effect (A1-receptor-Y^288A [1]; incubation 1, 2, 4, 8 or 24 hours): 24 h | distribution of receptor fluorescence (confocal) (A1-receptor-Y^288A [4]): the fluorescence was visualized on the cell surface | YFP fluorescence (flow cytometry) (A1-receptor-Y^288A [5]): substantial accumulation of YFP fluorescence

Compound: O=[N+]([O-])c1ccc(CSc2ncnc3c2ncn3[C@@H]2O[C@H](CO)[C@@H](O)[C@H]2O)cc1 [NBMPR, S-(4-nitrobenzyl)-6-thioinosine]
role of blockage of adenosine efflux in receptor upregulation (A1-receptor-Y^288A [1]; 24 hours): indispensable for receptor upregulation

Compound: OCCN(CCO)c1nc(N2CCCCC2)c2nc(N(CCO)CCO)nc(N3CCCCC3)c2n1 [dipyridamole]
Ki (human ENT1): ~5 nM | role of blockage of adenosine efflux in receptor upregulation (A1-receptor-Y^288A [1]; 24 hours): indispensable for receptor upregulation | receptor upregulation with only one of the inhibitors (immunoblot) (A1-receptor-Y^288A [1]; [6]): not present | binding to the A1 receptor (A1 receptor): neither EHNA nor 5-iodotubercidin nor dipyridamole per se, nor their combination, used in the experiments bound to the A1 receptor | Ki (human ENT2): ~350 nM

Compound: O=C1N[C@@H]2[C@@H](O)[C@@H](O)[C@H](O)[C@@H](CO)N2C1=O [kifunensine]
binding of [3H]DPCPX by the receptors accumulated after treatment (A1-receptor-Y^288A [3]): failed to bind the antagonist radioligand [^3H]DPCPX
